We go through 10 molecules from patent US10035804B2, “Spirodiamine derivatives as aldosterone synthase inhibitors” (Hoffmann-La Roche Inc., priority 2014, dated 2018).

In one assay the target is human CYP11B1 (Homo sapiens (Human), UniProt P15538). Briefly: G-402 cellular enzyme assay, human CYP11B1 (cortisol release). In kind it is cell-based. The note with it: G-402 cells expressing human CYP11B1; 1 μM Deoxycortisol; cortisol in supernatant after 16 h. The source says: (§1) Herein we identified the use of the G-402 cell line as a host cell to ectopically express (transiently or stably) enzymes of the CYP11 family. Specifically we developed stable G-402 cells expressing ectopically human CYP11B1, human CYP11B2, human CYP11A1, cynmolgus CYP11B1 or cynomolgus CYP11B2 enzyme activity. Importantly the identified cell line G-402 expresses co-factors (adrenodoxin and adrenodoxin reductase) important for the activity of the CYP11 family and no relevant enzyme activity of the CYP11 family (in comparison to H295R cells) was detected in these cells. Therefore the G-402 cell line is uniquely suited as a host cell for the ectopic expression of enzymes from the CYP11 family.
Sequence of human CYP11B1 (P15538 25-503): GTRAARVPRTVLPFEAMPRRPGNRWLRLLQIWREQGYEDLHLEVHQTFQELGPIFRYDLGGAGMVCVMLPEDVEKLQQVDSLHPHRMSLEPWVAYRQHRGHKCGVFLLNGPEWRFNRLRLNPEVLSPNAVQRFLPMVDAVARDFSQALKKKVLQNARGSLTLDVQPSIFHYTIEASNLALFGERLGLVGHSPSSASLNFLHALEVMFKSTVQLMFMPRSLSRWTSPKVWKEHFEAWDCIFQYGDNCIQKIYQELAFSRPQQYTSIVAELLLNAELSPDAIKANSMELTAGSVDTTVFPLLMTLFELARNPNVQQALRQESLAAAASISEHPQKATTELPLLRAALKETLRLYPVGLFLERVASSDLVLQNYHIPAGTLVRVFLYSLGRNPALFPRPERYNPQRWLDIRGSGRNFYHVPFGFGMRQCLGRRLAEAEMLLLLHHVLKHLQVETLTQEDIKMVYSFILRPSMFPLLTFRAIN
(§2) G-402 cells can be obtained from ATCC (CRL-1440) and were originally derived from a renal leiomyoblastoma.
(§3) The expression plasmids contains the ORF for either human/cyno CYP11B1 or CYP11B2 under the control of a suitable promoter (CMV-promoter) and a suitable resistance marker (neomycin). Using standard techniques the expression plasmid is transfected into G-402 cells and these cells are then selected for expressing the given resistance markers. Individual cell-clones are then selected and assessed for displaying the desired enzymatic activity using 11-Deoxycorticosterone (Cyp11B2) or 11-Deoxycortisol (Cyp11B1) as a substrate.
(§4) G-402 cells expressing CYP11 constructs were established as described above and maintained in McCoy's 5a Medium Modified, ATCC Catalog No. 30-2007 containing 10% FCS and 400 μg/ml G418 (Geneticin) at 37° C. under an atmosphere of 5% CO2/95% air. Cellular enzyme assays were performed in DMEM/F12 medium containing 2.5% charcoal treated FCS and appropriate concentration of substrate (0.3-10 uM 11-Deoxycorticosterone, 11-Deoxycortisol or Corticosterone). For assaying enzymatic activity, cells were plated onto 96 well plates and incubated for 16 h. An aliquot of the supernatant is then transferred and analyzed for the concentration of the expected product (Aldosterone for CYP11B2; Cortisol for CYP11B1). The concentrations of these steroids can be determined using HTRF assays from CisBio analyzing either Aldosterone or Cortisol.
(§5) Inhibition of the release of produced steroids can be used as a measure of the respective enzyme inhibition by test compounds added during the cellular enzyme assay. The dose dependent inhibition of enzymatic activity by a compound is calculated by means of plotting added inhibitor concentrations (x-axes) vs. measured steroid/product level (y-axes). The inhibition is then calculated by fitting the following 4-parameter sigmoidal function (Morgan-Mercer-Flodin (MMF) model) to the raw data points using the least squares method:
(§6) [formula] wherein, A is the maximum y value, B is the EC50 factor determined using XLFit, C is the minimum y value and D is the slope value.
(§7) EC50 values for compounds claimed herein were tested with the G402-based assay system described. Cyp11B2 enzyme activity was tested in presence of 1 μM Deoxycorticosterone and variable amounts of inhibitors; Cyp11B1 enzyme activity was tested in presence of 1 μM Deoxycortisol and variable amounts of inhibitors.

The target of the next assay is human CYP11B2 (Homo sapiens (Human), UniProt P19099). Briefly: G-402 cellular enzyme assay, human CYP11B2 (aldosterone release). In kind it is cell-based. The note with it: G-402 cells expressing human CYP11B2; 1 μM Deoxycorticosterone; aldosterone in supernatant after 16 h.
Sequence of human CYP11B2 (P19099 25-503): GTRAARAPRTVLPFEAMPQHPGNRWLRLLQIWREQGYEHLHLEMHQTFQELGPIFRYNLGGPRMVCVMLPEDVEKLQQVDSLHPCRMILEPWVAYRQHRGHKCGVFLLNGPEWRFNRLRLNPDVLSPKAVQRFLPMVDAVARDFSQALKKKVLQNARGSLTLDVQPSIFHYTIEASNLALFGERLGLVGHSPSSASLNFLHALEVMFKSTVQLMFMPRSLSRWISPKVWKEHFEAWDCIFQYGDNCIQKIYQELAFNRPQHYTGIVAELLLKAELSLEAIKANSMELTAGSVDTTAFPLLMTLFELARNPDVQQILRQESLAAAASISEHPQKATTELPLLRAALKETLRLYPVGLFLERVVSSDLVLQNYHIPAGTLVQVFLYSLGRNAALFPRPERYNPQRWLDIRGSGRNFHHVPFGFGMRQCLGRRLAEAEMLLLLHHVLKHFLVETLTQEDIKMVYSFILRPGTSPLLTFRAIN
Excerpt: as §1, §2, §3, §4, §5, §6, §7

Where only a bound is given, the exact number is not on record here.

With `Cc1cnc(C(=O)N2CC3(C2)CN(c2cncc(N4C(=O)c5ccc(Cl)cc5C4(C)C)c2)C3)cn1` [Example 30, 5-Chloro-3,3-dimethyl-2-[5-[2-(5-methylpyrazine-2-carbonyl)-2,6-diazaspiro[3.3]heptan-6-yl]-3-pyridyl]isoindolin-1-one], the values for the EC50 at human CYP11B1 and at human CYP11B2 were 3.75 nM and 0.0456 nM, respectively.

On to `Cn1cc(C(=O)N2CC3(C2)CN(c2cncc(N4C(=O)c5ccc(Cl)cc5C4(C)C)c2)C3)cn1` [Example 1, 5-Chloro-3,3-dimethyl-2-[5-[2-(1-methylpyrazole-4-carbonyl)-2,6-diazaspiro[3.3]-heptan-6-yl]-3-pyridyl]isoindolin-1-one], for which the figures for the EC50 at human CYP11B1 and at human CYP11B2 were 11.3 nM and 0.002 nM, respectively.

Turning to `Cc1ocnc1C(=O)N1CC2(C1)CN(c1cncc(N3C(=O)c4ccc(Cl)cc4C3(C)C)c1)C2` [Example 32, 5-Chloro-3,3-dimethyl-2-[5-[2-(5-methyloxazole-4-carbonyl)-2,6-diazaspiro[3.3]heptan-6-yl]-3-pyridyl]isoindolin-1-one], the values for the 50% effective concentration (EC50) at human CYP11B1 and at human CYP11B2 were 5.37 nM and 0.0149 nM, respectively.

On to `Cn1cc(C(=O)N2CC3(C2)CN(c2cncc(N4C(=O)c5ccc(C#N)cc5C4(C)C)c2)C3)cn1` [Example 8, 3,3-Dimethyl-2-[5-[2-(1-methylpyrazole-4-carbonyl)-2,6-diazaspiro[3.3]heptan-6-yl]-3-pyridyl]-1-oxo-isoindoline-5-carbonitrile], for which the EC50 on human CYP11B1 is greater than 30 nM; on human CYP11B2, 0.112 nM.

Consider `Cn1ccnc1C(=O)N1CC2(C1)CN(c1cncc(N3C(=O)c4ccc(C#N)cc4C3(C)C)c1)C2` [Example 11, 3,3-Dimethyl-2-[5-[2-(1-methylimidazole-2-carbonyl)-2,6-diazaspiro[3.3]heptan-6-yl]-3-pyridyl]-1-oxo-isoindoline-5-carbonitrile], for which the EC50 at human CYP11B1 is 4.76 nM; on human CYP11B2 it was 0.0252 nM.

As for `Cn1cncc1C(=O)N1CC2(C1)CN(c1cncc(N3C(=O)c4ccc(C#N)cc4C3(C)C)c1)C2` [Example 13, 3,3-Dimethyl-2-[5-[2-(3-methylimidazole-4-carbonyl)-2,6-diazaspiro[3.3]heptan-6-yl]-3-pyridyl]-1-oxo-isoindoline-5-carbonitrile], the results for the EC50 on human CYP11B1 and on human CYP11B2 were 26.4 nM and 0.0278 nM, respectively.

As for `CC1(C)c2cc(Cl)ccc2C(=O)N1c1cncc(N2CC3(CN(C(=O)c4cncc(C#N)c4)C3)C2)c1` [Example 36, 5-[6-[5-(6-Chloro-1,1-dimethyl-3-oxo-isoindolin-2-yl)-3-pyridyl]-2,6-diazaspiro[3.3]heptane-2-carbonyl]pyridine-3-carbonitrile], the EC50 on human CYP11B1 came out at 31 nM; at human CYP11B2 it was 0.0457 nM.

On to `COc1ccc2c(n1)C(C)(C)N(c1cncc(N3CC4(CN(C(=O)c5cnccc5C)C4)C3)c1)C2=O` [Example 16, 2-Methoxy-7,7-dimethyl-6-[5-[2-(4-methylpyridine-3-carbonyl)-2,6-diazaspiro[3.3]heptan-6-yl]-3-pyridyl]pyrrolo[3,4-b]pyridin-5-one], for which the values for the EC50 on human CYP11B1 and at human CYP11B2 were 29.3 nM and 0.0827 nM, respectively.

For `Cn1nccc1C(=O)N1CC2(C1)CN(c1cncc(N3C(=O)c4ccc(C#N)cc4C3(C)C)c1)C2` [Example 12, 3,3-Dimethyl-2-[5-[2-(2-methylpyrazole-3-carbonyl)-2,6-diazaspiro[3.3]heptan-6-yl]-3-pyridyl]-1-oxo-isoindoline-5-carbonitrile], the EC50 on human CYP11B1 was greater than 30 nM; on human CYP11B2, 0.191 nM.

For `CC1c2cc(Cl)ccc2C(=O)N1c1cncc(N2CC3(CN(C(=O)c4cnn(C)c4)C3)C2)c1` (centres unmarked) [Example 18, 5-Chloro-3-methyl-2-[5-[2-(1-methylpyrazole-4-carbonyl)-2,6-diazaspiro[3.3]heptan-6-yl]-3-pyridyl]isoindolin-1-one], the figures for the EC50 on human CYP11B1 and at human CYP11B2 were 16.7 nM and 0.0078 nM, respectively.

For orientation: EC50 means the concentration giving half of the maximal effect. Low readings indicate greater potency, high ones weaker potency.
